According to patent US6497862B2, “Composition for inhibiting body odor and uses thereof” (Kabushiki Kaisha Hayashibara, priority 2000, dated 2002):

Columns and labels:
[1] = Formation of 2-nonenal from 9-hexadecanoic acid at the temperature of human body, GC of HSG (Experiment 6); conditions: 37° C., 9,000 lux
Protocol: One hundred milligrams of 9-hexadecanoic acid as a fatty acid, 500 mg of a cellulose powder, and 1.25 ml of 0.12 M phosphate buffer (pH 6.0) were placed in a 20-ml glass vial. To the glass vial was added 100 mg of either of trehalose, maltitol and sucrose as a test saccharide, followed by sealing with a butyl rubber cap for use as a test system. As a control system, there provided a glass vial with no test saccharide that differed from the test systems only in this point. In both the test- and control-systems, they were respectively provided in doublet.
These glass vials were allowed to stand in a 37° C.-thermostatic-bath under the irradiation of 9,000 lux by a fluorescent lamp. At 3-days of standing, one of each pair of the vials containing the same composition, and 7-days of standing, the other vial of each resting pair of the vials were transferred to a heat block, which had been preheated to 80° C. and then kept therein for five minutes, followed by analyzing the content of 2-nonenal in HSG in each vial by GC similarly as in Experiment 2. After the collection of HSG, the smell from glass vials was evaluated by panel test in accordance with the method in Experiment 2.

[2] = Decomposition of fatty acids by heating, linoleic acid (Experiment 5); conditions: heated at 105° C. for one hour with 100 mg test saccharide; control 60.0
Protocol: One hundred milligrams of linoleic acid or 9-hexadecanoic acid as a fatty acid, 500 mg of a cellulose powder, and 1.25 ml of 0.12 M phosphate buffer (pH 6.0) were placed in a 20-ml glass vial. To the glass vial was added 100 mg of either of trehalose, maltitol and sucrose as a test saccharide, followed by sealing with a butyl rubber cap. As a control system, there provided a glass vial with no test saccharide that differed from the test systems only in this point. These vials were heated at 105° C. for one hour. Another glass vial with no heat treatment, which contained the same ingredients as shown in the above, was provided that differed from the test systems only in that it had no heat treatment.
The above test systems with or without heat treatment and the control system were subjected to the following methyl esterification reaction and analyzed on GC to measure the content of fatty acids; To each glass vial was added 20 ml of a mixture solution of chloroform and methanol (=2:1 by volume) to extract fatty acids, and one milliliter of each resulting extract was collected in a 10-ml eggplant-shape flask, concentrated, and dried in vacuo. […]
Two microliters of each of the resulting n-hexane layers were analyzed on GC using “GAS CHROMATOGRAPH GC-14A”, a GC apparatus, commercialized by Shimadzu Corporation, Tokyo, Japan; and “CAPILLARY COLUMN FFAP”, an analysis column having an inner diameter of 0.25 mm, a length of 30 m, and a membrane thickness of 0.25 μm, commercialized by GL Sciences Inc., Tokyo, Japan, under the conditions of using helium gas as a carrier at a flow rate of 1 ml/min, at a temperature of 250° C. as a sample injection temperature, a column thermostatic bath temperature being kept at 80° C. for five minutes and then increased up to 240° C. at a rate of 5° C./min, and a hydrogen flame ionization detector for detecting fatty acids. Based on the peak area of the obtained gas chromatograms, it was calculated the content of fatty acids, i.e., linoleic acid and 9-hexadecanoic acid, before or after the heat treatment in the test- and control-systems. […]

[3] = Formation of 2-nonenal from linoleic acid by heating, GC of HSG (Experiment 2); conditions: linoleic acid + 100 mg test saccharide, heated at 105° C. for one hour; control 5.75
Protocol: (§1) One hundred milligrams of oleic acid as a fatty acid, 500 mg of cellulose powder, and 1.25 ml of 0.12 M phosphate buffer (pH 6.0) were placed in a 20-ml glass vial. To the glass vial were added 100 mg of either of crystalline trehalose hydrate, crystalline maltitol anhydride, crystalline sorbitol anhydride, crystalline sucrose anhydride, crystalline maltose anhydride, and crystalline neotrehalose hydride as test saccharides (throughout Experiments 1 to 6, these saccharides are designated as “trehalose”, “maltitol”, sorbitol”, “sucrose”, “maltose”, and “neotrehalose”, respectively), followed by sealing the glass vial with a butyl rubber. As a control system, there provided a glass vial, with no a test saccharide, which differed from the test glass vial on this point. These glass vials were heated at 105° C. for one hour, cooled to ambient temperature, and kept in an aluminum heat-block (abbreviated as “heat block, hereinafter”), which had been preheated to 80° C. After 5-minutes standing, two milliliters of a head space gas (abbreviated as “HSG”, hereinafter) were collected from each glass vial with a syringe.
The collected HSG was analyzed for content of volatile aldehydes on gas chromatography (abbreviated as “GC” hereinafter) using “GAS CHROMATOGRAPH GC-14A”, as a GC apparatus; “CAPILLARY COLUMN SUPELCO-WAX”, having 0.25 mm in inner diameter, 60 m in length, and 0.25 μm in thickness, commercialized by Supelco Inc., Tokyo, Japan, as a column for analysis; helium gas at a flow rate of one ml/min as a carrier gas, under temperature conditions of 250° C. for injecting a sample and of a column thermostatic bath temperature being kept at 80° C. for five minutes and then increased up to 240° C. at a rate of 5° C./min. As standard specimens, propanal, butanal, and hexanal as volatile aldehydes were used. Based on the peak area obtained from gas chromatography for the standard specimens and HSG samples, the content of respective volatile aldehydes in HSG was calculated.
The content of 2-nonenal in HSG was measured by GC similarly as in Experiment 1 except that linoleic acid was used as a fatty acid and 2-nonenal, a volatile aldehyde, was used as a standard substance. The level of a body-odor-like smell, particularly with respect to KAREI-SHU, in each sample was evaluated by panel test in accordance with the method in Experiment 1.

[4] = Panel test of body-odor-like smell, oleic acid heated (Experiment 1); design: key: +++: the same or higher level of odor; ++: slightly lower level of odor; +: clearly lower level of odor than that of the control system; conditions: oleic acid heated at 105° C. for one hour; six panels, compared with control system
Protocol: as §1
Upon the HSG samples, the level of a body-odor-like smell was examined on a panel test consisting of six professional panels; the panels directly smelled the samples from each glass vial and judged the level of the smells for each samples with test saccharides based on the following four ranks, i.e., the same or higher level of odor (+++), slightly lower level of odor (++), clearly lower level of odor (+), and odorless (−) as compared with the control system. Summing up the data from the panels, the samples tested were totally evaluated.

[5] = 3-days of standing, control 0.03
[6] = 7-days of standing, control 16.8

In the case of `OC[C@@H](O)[C@@H](O[C@H]1O[C@H](CO)[C@@H](O)[C@H](O)[C@H]1O)[C@H](O)[C@@H](O)CO` [Maltitol, maltitol], the “Content of 2-nonenal in HSG” value [1, 5] was 0.00 µg/mL, the “Content of 2-nonenal in HSG” value [1, 6] was 2.77 µg/mL and the “Decomposition percentage, Linoleic acid” value [2] was 33.4%. The “Content of 2-nonenal in HSG” value [3] was 1.73 µg/mL and the “Evaluation of panel test” value [4] was “++”.
With `OC[C@H]1O[C@@](CO)(O[C@H]2O[C@H](CO)[C@@H](O)[C@H](O)[C@H]2O)[C@@H](O)[C@@H]1O` [Sucrose, sucrose] the “Content of 2-nonenal in HSG” value [1, 5] was 0.26 µg/mL, the “Content of 2-nonenal in HSG” value [1, 6] was 16.4 µg/mL and the “Decomposition percentage, Linoleic acid” value [2] was 58.0%. For the same molecule, the “Content of 2-nonenal in HSG” value [3] was 5.41 µg/mL and the “Evaluation of panel test” value [4] was “+++”.
With `OC[C@H]1O[C@H](O[C@H]2O[C@H](CO)[C@@H](O)[C@H](O)[C@H]2O)[C@H](O)[C@@H](O)[C@@H]1O` [Trehalose, trehalose] the “Content of 2-nonenal in HSG” value [1, 5] was 0.00 µg/mL, the “Content of 2-nonenal in HSG” value [1, 6] was 2.64 µg/mL and the “Decomposition percentage, Linoleic acid” value [2] was 25.2%. For the same molecule, the “Content of 2-nonenal in HSG” value [3] was 1.27 µg/mL and the “Evaluation of panel test” value [4] was “+”.
